Data: patent US20140051875A1, “CRYSTALLINE FORM OF MAXACALCITOL” (FORMOSA LABORATORIES INC., priority 2012, published 2014)
Like-named read-outs stand apart in the source and are kept apart here.

Assays:
[1] = Storage stability of maxacalcitol hydrate under an inert gas atmosphere; format: physicochemical; settings: under an inert gas atmosphere at 25° C.
Text: In a preferred embodiment, the maxacalcitol hydrate is stored in an amber vial.

[2] = cited from earlier work

stability to storage: no degradation for (time) [1]	Structure (SMILES)	stability: decomposed after storage (time) ([2]; amber vial under inert gas environment at 25° C.)	stability: stable for (storage time) ([2]; amber vial under inert gas environment at −20° C.)	stability: stable for (storage time) ([2]; amber vial under inert gas environment at −80° C.)	decomposition on storage ([2]; at 25° C., according to the JP interview form)
at least 32 days	C=C1/C(=C\C=C2/CCC[C@]3(C)[C@@H]([C@H](C)OCCC(C)(C)O)CC[C@@H]23)C[C@@H](O)C[C@@H]1O [maxacalcitol hydrate]	–	–	–	–
–	C=C1/C(=C\C=C2/CCC[C@]3(C)[C@@H]([C@H](C)OCCC(C)(C)O)CC[C@@H]23)C[C@@H](O)C[C@@H]1O [maxacalcitol, (+)-(5Z,7E,20S)-20-(3-Hydroxy-3-methylbutoxy)-9,10-secopregna-5,7,10(19)-triene-1α,3β-diol]	4 weeks	6 months	36 months	considerable degree of decomposition
